Experimental data from patent publication US20250170266A1 (ZYMEWORKS BC INC., priority 2022, published 2025).
Like-named read-outs stand apart in the source and are kept apart here.

Columns and labels:
Assay type in all cases: cell-based
hTLR7 = molecular target: T1, hTLR7 (Homo sapiens, UniProt Q9NYK1); assay: Reporter Gene Assay (RGA), HEK-Blue hTLR7 reporter cells, SEAP readout; conditions: overnight incubation, SEAP absorbance 620 nm
T1 construct: host or cells: HEK-Blue hTLR7 reporter cells (HEK293-derived, own knowledge)
T1 sequence (Q9NYK1 27-1049): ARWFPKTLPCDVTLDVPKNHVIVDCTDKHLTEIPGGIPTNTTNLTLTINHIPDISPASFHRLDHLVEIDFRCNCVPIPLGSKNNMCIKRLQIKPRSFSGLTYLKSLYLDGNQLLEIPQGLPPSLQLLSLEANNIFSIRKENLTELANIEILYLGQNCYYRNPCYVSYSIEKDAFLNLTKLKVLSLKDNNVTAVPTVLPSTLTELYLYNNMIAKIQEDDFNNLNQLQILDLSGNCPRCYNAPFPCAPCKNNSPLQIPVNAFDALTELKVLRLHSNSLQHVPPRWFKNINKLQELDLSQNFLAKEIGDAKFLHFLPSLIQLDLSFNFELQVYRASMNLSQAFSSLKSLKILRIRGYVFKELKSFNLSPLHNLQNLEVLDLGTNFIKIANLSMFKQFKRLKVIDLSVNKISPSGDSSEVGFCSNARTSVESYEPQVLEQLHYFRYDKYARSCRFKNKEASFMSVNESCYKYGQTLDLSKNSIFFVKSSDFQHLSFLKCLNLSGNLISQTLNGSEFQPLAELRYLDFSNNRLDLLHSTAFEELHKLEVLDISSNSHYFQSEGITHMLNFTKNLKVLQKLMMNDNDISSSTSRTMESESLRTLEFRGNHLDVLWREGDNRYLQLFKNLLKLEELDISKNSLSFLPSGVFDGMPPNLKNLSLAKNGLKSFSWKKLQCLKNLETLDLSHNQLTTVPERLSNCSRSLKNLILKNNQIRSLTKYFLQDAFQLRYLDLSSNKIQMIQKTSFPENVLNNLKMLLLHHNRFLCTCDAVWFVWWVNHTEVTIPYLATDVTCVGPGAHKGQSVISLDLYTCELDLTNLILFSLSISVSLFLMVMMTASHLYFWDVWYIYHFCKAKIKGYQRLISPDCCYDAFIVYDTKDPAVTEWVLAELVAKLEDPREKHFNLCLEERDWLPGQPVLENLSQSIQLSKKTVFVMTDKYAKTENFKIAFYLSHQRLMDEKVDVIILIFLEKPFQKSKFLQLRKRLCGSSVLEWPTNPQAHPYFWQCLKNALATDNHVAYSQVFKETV
Summary of the method: (§1)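 HEK-Blue reporter cells expressing human or mouse TLR7 (1.5×10^4 cells) were treated with an 11-point, 4-fold compound titration from 15 pM in HEK-Blue Detection medium. Incubation was overnight at 37° C with 5% CO2. Secreted embryonic alkaline phosphatase was read as absorbance at 620 nm.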

mTLR7 = molecular target: T2, mTLR7 (Mus musculus, UniProt P58681); assay: Reporter Gene Assay (RGA), HEK-Blue mTLR7 reporter cells, SEAP readout; conditions: overnight incubation, SEAP absorbance 620 nm
T2 construct: host or cells: HEK-Blue mTLR7 reporter cells (HEK293-derived, own knowledge)
T2 sequence (P58681 27-1050): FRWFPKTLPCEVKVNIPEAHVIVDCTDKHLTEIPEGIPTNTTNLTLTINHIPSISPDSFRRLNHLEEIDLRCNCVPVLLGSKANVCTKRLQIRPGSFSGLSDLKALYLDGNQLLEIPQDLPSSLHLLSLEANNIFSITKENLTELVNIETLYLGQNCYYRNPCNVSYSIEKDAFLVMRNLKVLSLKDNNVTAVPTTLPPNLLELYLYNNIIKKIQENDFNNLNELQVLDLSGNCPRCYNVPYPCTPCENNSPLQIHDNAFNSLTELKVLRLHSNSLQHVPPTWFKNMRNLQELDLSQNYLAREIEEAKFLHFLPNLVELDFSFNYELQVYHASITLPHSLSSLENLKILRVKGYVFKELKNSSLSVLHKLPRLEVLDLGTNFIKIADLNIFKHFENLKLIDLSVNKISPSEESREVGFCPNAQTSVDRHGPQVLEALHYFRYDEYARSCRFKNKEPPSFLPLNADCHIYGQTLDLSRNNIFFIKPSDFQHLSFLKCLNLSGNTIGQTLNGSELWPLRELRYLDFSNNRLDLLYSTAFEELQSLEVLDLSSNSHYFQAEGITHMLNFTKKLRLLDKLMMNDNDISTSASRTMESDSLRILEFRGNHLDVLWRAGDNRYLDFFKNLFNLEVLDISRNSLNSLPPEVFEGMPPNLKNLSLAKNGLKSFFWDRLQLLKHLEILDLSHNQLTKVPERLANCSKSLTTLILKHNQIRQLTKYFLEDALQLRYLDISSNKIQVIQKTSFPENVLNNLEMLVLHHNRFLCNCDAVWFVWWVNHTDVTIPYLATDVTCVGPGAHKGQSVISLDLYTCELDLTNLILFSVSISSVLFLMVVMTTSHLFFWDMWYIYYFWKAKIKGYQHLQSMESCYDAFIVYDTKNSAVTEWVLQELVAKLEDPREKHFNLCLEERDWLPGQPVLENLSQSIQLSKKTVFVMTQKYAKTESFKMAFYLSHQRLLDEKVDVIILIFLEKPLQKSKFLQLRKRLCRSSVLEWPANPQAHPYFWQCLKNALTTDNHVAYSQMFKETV
Summary of the method: as §1

[1] = tested on: Human peripheral blood mononuclear cells (PBMCs); assay: Human PBMC Assay, cytokine release (HTRF); conditions: 24 hours; for EC50: PBMC
Summary of the method: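 Cryopreserved human PBMCs, rested overnight with 10 ng/ml hIL3, then 300,000 cells/well treated 24 h at 37° C with compound (4-fold, 11-point titration from 15 μM) in RPMI+10% FBS. Supernatant hIL6, hTNFα and hIFNα measured by HTRF; growth medium as negative control.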

Mouse splenocytes = assay: Mouse Splenocyte Assay, cytokine release (HTRF); conditions: Splenocyte, 24 hours, mIL6 in supernatant, read-out: Splenocyte IL6 EC50
Summary of the method: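 Splenocytes from female balb/c nude mice, thawed, 100,000 per well in RPMI + 10% FBS. Exposed for 24 h at 37 °C to a 4-fold 11-point compound titration from 15 μM; supernatant mIL6 and mTNFα measured by HTRF.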

[2] = hIFNα in supernatant, EC50 values approximated and divided into groups, read-out: PBMC IFNa EC50
[3] = hIL6 in supernatant, read-out: PBMC IL6 EC50

| Structure (SMILES) | EC50 (hTLR7) | EC50 (mTLR7) | EC50 [1, 2] | EC50 [1, 3] | EC50 (Mouse splenocytes) | PBMC IL6 EC50 (nM) ([1]; hIL6 in supernatant) |
| --- | --- | --- | --- | --- | --- | --- |
| CCCCOc1nc(N)c2nc(O)n(Cc3ccc(N4CCC(N)CC4)cc3OC)c2n1 [Compound 170, 6-amino-9-(4-(4-aminopiperidin-1-yl)-2-methoxybenzyl)-2-butoxy-9H-purin-8-ol] | 1 nM | 2 nM | > 10 nM | 1470 nM | 51.7 nM |  |
| CCCCOc1nc(N)c2nc(O)n(Cc3ccc(N4CCC5(CCNCC5)CC4)cc3OC)c2n1 [Compound 171, 6-amino-2-butoxy-9-(2-methoxy-4-(3,9-diazaspiro[5.5]undecan-3-yl)benzyl)-9H-purin-8-ol] | < 0.1 nM | 1.1 nM | > 10 nM | 1550 nM | 8.9 nM |  |
| CCCCOc1nc(N)c2nc(O)n(Cc3ccc(CCCN4CCC(N)CC4)cc3OC)c2n1 [Compound 172, 6-amino-9-(4-(3-(4-aminopiperidin-1-yl)propyl)-2-methoxybenzyl)-2-butoxy-9H-purin-8-ol] | < 0.1 nM | < 0.1 nM | > 10 nM |  | 2.1 nM |  |
| CCCCOc1nc(N)c2nc(O)n(Cc3ccc(CCCN4CCNCC4)cc3OC)c2n1 [Compound 173, 6-amino-2-butoxy-9-(2-methoxy-4-(3-(piperazin-1-yl)propyl)benzyl)-9H-purin-8-ol] | 0.2 nM | 0.6 nM | 1 to 10 nM | 1800 nM | 5 nM |  |
| CCCCOc1nc(N)c2nc(O)n(Cc3ccc(CCCN4CCC(CCN)CC4)cc3OC)c2n1 [Compound 175, 6-amino-9-(4-(3-(4-(2-aminoethyl)piperidin-1-yl)propyl)-2-methoxybenzyl)-2-butoxy-9H-purin-8-ol] | < 0.1 nM | < 0.1 nM | > 10 nM |  | 6 nM | inactive |
| CCCCOc1nc(N)c2nc(O)n(Cc3ccc(CCCNC4CCNCC4)cc3OC)c2n1 [Compound 176, 6-amino-2-butoxy-9-(2-methoxy-4-(3-(piperidin-4-ylamino)propyl)benzyl)-9H-purin-8-ol] | < 0.1 nM | < 0.1 nM | > 10 nM |  | 5.8 nM | inactive |
| CCCCOc1nc(N)c2nc(O)n(Cc3ccc(CCN4CCNCC4)cc3OC)c2n1 [Compound 180, 6-amino-2-butoxy-9-(2-methoxy-4-(2-(piperazin-1-yl)ethyl)benzyl)-9H-purin-8-ol] | 34 nM | 79.9 nM | > 10 nM |  | 873 nM | inactive |
| CCCC(CO)Oc1nc(N)c2nc(O)n(Cc3ccc(CN)cc3)c2n1 (centres unmarked) [Compound 182, 6-amino-9-(4-(aminomethyl)benzyl)-2-((1-hydroxypentan-2-yl)oxy)-9H-purin-8-ol] | 2.1 nM | 5.9 nM | > 10 nM | 5220 nM | 2.4 nM |  |
| CCCCCNc1nc(N)c2nc(O)n(Cc3ccc(CN)cc3)c2n1 [Compound 183, 6-amino-9-(4-(aminomethyl)benzyl)-2-(pentylamino)-9H-purin-8-ol] | 145 nM | 60.6 nM | > 10 nM | 291 nM | 235 nM |  |
